From patent publication EP0346744A1, “Condensed diazepinones, process for their preparation and medicaments containing them” (Dr. Karl Thomae GmbH, priority 1988, dated 1989) come the findings set out here.

One assay relates to M2. Nature of the assay: Inhibition of vagal-stimulation bradycardia in the rat (M1/M2 selectivity, heart). Format: in vivo, Ratte. The protocol:
(§1) 1. M,- M2-Selektivität an der Ratte
(§2) Die angewandte Methode wurde von Hammer und Giachetti (Life Sciences 31, 2991-2998 (1982)) beschrieben. 5 Minuten nach intravenöser Injektion steigender Dosen der Substanz wurden entweder der rechte Vagus elektrisch stimuliert (Frequenz: 25 Hz; Pulsbreite: 2ms; Reizdauer: 30s; Voltzahl: supramaximal) oder 0,3 mg kg McN-A-343 in männliche THOM-Ratten intravenös injiziert. Die durch Vagusstimulation hervorgeru fene Bradykardie und der durch McN-A-343 verursachte Blutdruckanstieg wurden bestimmt. Die Dosis der Substanzen, die entweder die vagale Bradykardie (M2) oder den Blutdruckanstieg (Mi) um 50% verminderte, wurde graphisch ermittelt. Ergebnisse siehe Tabelle II.

The next assay relates to M1. Nature of the assay: Inhibition of McN-A-343-induced blood pressure rise in the rat (M1/M2 selectivity). Format: in vivo, Ratte. The protocol:
as §1, §2

For a further assay, the system named is Speichelsekretion. Briefly: Inhibition of pilocarpine-induced salivation in the rat. Format: in vivo, Ratte. The conditions noted are these: iv; urethane-anaesthetised rat, i.v.; salivation induced by 2 mg/kg pilocarpine s.c.; dose reducing saliva volume by 50%; read-out: -log ED50 Salivation (converted). The protocol: 2. Speichselsekretionshemmende Wirkung an der Ratte
Nach Lavy und Mulder (Arch. int. Pharmacodyn. 178. 437-445, (1969)) erhielten mit 1,2 glkg Urethan narkotisierte männliche THOM-Ratten steigende Dosen der Substanz i.v.. Die Speichelsekretion wurde durch s.c. Gabe von 2 mg kg Pilocarpin ausgelöst. Der Speichel wurde mit Fließpapier aufgesaugt, die von ihm eingenommene Fläche alle 5 Minuten planimetrisch bestimmt. Die Dosis der Substanz, die das Speichelvolumen um 50% verminderte, wurde graphisch ermittelt. Ergebnisse siehe Tabelle II.

The test system of another assay is Herzfrequenz. Nature of the assay: Inhibition of acetylcholine effect on heart rate of the guinea pig. The format is in vivo, Meerschweinchen. As to conditions: for ED50: Cavia porcellus, 5 min, anaesthetised guinea pig, 10 µg/kg acetylcholine 5 min after test substance, heart rate by ECG. The protocol: (§3) 3. Hemmung der Acetylcholinwirkung auf Blase, Bronchien und Herzfrequenz des Meerschweinchens
(§4) Am narkotisierten Meerschweinchen wurden 5 Minuten nach Gabe der Prüfsubstanz 10 µg/kg Acetylcholin intravenös als auch gleichzeitig intraarteriell injiziert. Dabei wurde die Herzfrequenz durch extrakorporale Ableitung des EKG, der Ausatemwiderstand nach Konzett-Rößler und die Kontraktion der freigelegten Harnblase direkt registriert. Für die Hemmung der Acetylcholinwirkung an den untersuchten Organen wurden Dosis-Wirkungskurven aufgenommen und daraus -log EDso-Werte bestimmt. Ergebnisse siehe Tabelle III.

The next assay relates to Bronchien. Briefly: Inhibition of acetylcholine effect on bronchi of the guinea pig. Format: in vivo, Meerschweinchen. As to conditions: for ED50: Cavia porcellus, 5 min, anaesthetised guinea pig, 10 µg/kg acetylcholine 5 min after test substance, expiratory resistance (Konzett-Rößler), read-out: -log ED50 Bronchien (converted). The protocol:
as §3, §4

A further assay relates to Blase. Briefly: Inhibition of acetylcholine effect on bladder of the guinea pig. The format is in vivo, Meerschweinchen. The conditions noted are these: for ED50: Cavia porcellus, 5 min, anaesthetised guinea pig, 10 µg/kg acetylcholine 5 min after test substance, contraction of exposed urinary bladder, read-out: -log ED50 Blase (converted). The protocol:
as §3, §4

Setting [1] is: rat, i.v., 5 min before electrical stimulation of the right vagus, dose reducing vagal bradycardia (M2) by 50%.
Setting [2] is: rat, i.v., 5 min before 0,3 mg/kg McN-A-343 i.v., dose reducing blood pressure rise (M1) by 50%.

The term ED50 denotes the midpoint of the dose-response relation.

Structures can show the parent of a compound that is named as a salt.

On to `CN(CCC1CCCCCN1C)CC(=O)N1c2ccccc2C(=O)Nc2cccnc21` (centres unmarked) [B, 5.11-Dihydro-11-[[[2-(1-methyl-hexahydro-1 H-2-azepinyi)ethyl]methylamino]acetyl]-6H-pyrido-[2,3-b][1,4]benzodiazepin6-on], for which, in the assay with M2 (setting [1]), the “-log ED50 Herz” value was 7,41 Mkg^-1. Moreover, the “-log ED50 Blutdruck” value in the assay with M1 (setting [2]) is 6,46 Mkg^-1. Also, the ED50 in the assay with Speichelsekretion is 3.39 µmol/kg; with Herzfrequenz, 0.0251 µmol/kg; in the assay on Bronchien, 0.0646 µmol/kg; in the assay with Blase, 0.269 µmol/kg.

As for `CN(CCC1CCCCN1C)CC(=O)N1c2ccccc2C(=O)Nc2cccnc21` (centres unmarked) [A], the “-log ED50 Herz” value with M2 (setting [1]) was 7,48 Mkg^-1. For the same compound, the “-log ED50 Blutdruck” value with M1 (setting [2]) is 6,34 Mkg^-1. In addition, the median effective dose (ED50) in the assay with Speichelsekretion was 1.23 µmol/kg; in the assay with Herzfrequenz it was 0.0178 µmol/kg; in the assay with Bronchien, 0.0457 µmol/kg; in the assay on Blase it was 0.12 µmol/kg.

For the compound `Cc1ccc2c(c1)C(=O)Nc1cccnc1N2C(=O)CN(C)CCC1CCCCCN1C` (centres unmarked) [D, 5,11-Dihydro-8-methyl-11-[[[2-(1-methyl-hexahydro-1H-2-azepinyl)ethyl]methylamino]acetyl]-6H-pyrido[2,3-b][1,4]benzodiazepin-6-on], the “-log ED50 Herz” value in the assay on M2 (setting [1]) is listed as 7,67 Mkg^-1. Also, the 50% effective dose (ED50) was 0.617 µmol/kg in the assay on Speichelsekretion, 0.0525 µmol/kg with Herzfrequenz, 0.135 µmol/kg with Bronchien and 0.347 µmol/kg in the assay with Blase.

As to `CCN(CC)CC1CCCCN1CC(=O)N1c2ccccc2C(=O)Nc2cccnc21` (centres unmarked) [E, 11-[[2-[(Diethylamino)methyl]-1-piperidinyl]acetyl]-5,11-dihydro-6H-pyrido[2,3-b][1,4]-benzodiazepin-6-on, reference compound], the “-log ED50 Herz” value in the assay with M2 (setting [1]) was 6,42 Mkg^-1. Besides, the ED50 with Speichelsekretion was 10 µmol/kg.

Turning to `CN(CCC1CCCCCN1C)CC(=O)N1c2cc(Cl)ccc2C(=O)Nc2cccnc21` (centres unmarked) [C, 9-Chior-5,11-dihydro-11-[[[2-(1-methyl-hexahydro-1H-2-azepinyl)ethyl]methylamino]acetyl]-6H-pyrido[2,3-b][1,4]benzodiazepin-6-on-hydrochlorid], in the assay with M2 (setting [1]), the “-log ED50 Herz” value is recorded as 7,5 Mkg^-1. The median effective dose (ED50) in the assay on Speichelsekretion was 3.02 µmol/kg; with Herzfrequenz, 0.055 µmol/kg; in the assay with Bronchien it was 0.191 µmol/kg; in the assay with Blase it was 0.234 µmol/kg.

For the compound `CN1C2CCC1CC(OC(=O)C(CO)c1ccccc1)C2` (racemic) [G, Atropin, reference compound], the “-log ED50 Herz” value was 7,94 Mkg^-1 with M2 (in vivo, iv) and 7,70 Molkg^-1 in the assay on Herzfrequenz (in vivo). Also, the “-log ED50 Blutdruck” value in the assay on M1 (in vivo) is given as 7,34 Mkg^-1. Besides, the “-log ED50 Bronchien” value in the assay on Bronchien (in vivo) is on record as 7,96 Molkg^-1. Further, the “-log ED50 Blase” value in the assay on Blase (in vivo) was 7,03 Molkg^-1.
